In brackets after ≈: the same amount, converted by molar mass. Read-outs that look alike come from different tables or passages of the source.
How the values were obtained:
CYP2D6 = CYP2D6 (Homo sapiens (Human), UniProt P10635); test: Cytochrome P450 CYP2D6 inhibition in human liver microsomes; format: in vitro ADME; details: probe dextromethorphan 2 µM (dextrorphan formation); 1 uM test compound, human liver microsomes; average value from two experiments; negative values = no effective inhibition
In short: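 Human liver microsomes (0.2 mg/mL) with 2 μM dextromethorphan in 100 mM PBS, test compound at 1 μM or 0.1-30 μM, 15 min preincubation then NADPH-started reaction for 20 min at 37° C, in duplicate. Dextrorphan formation by UPLC-MS/MS; IC50 from % decrease versus uninhibited control.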

mPTP [1] = test: mPTP activity (Ca2+ retention) assay in isolated rat liver mitochondria; format: biochemical; details: isolated rat liver mitochondria; average value from multiple experiments (n ≥ 2)
In short: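 Freshly isolated female Sprague Dawley rat liver mitochondria were energised with succinate and rotenone in pH 7.4 buffer with Fluo5N, then pre-incubated 10 min at RT with compound (30 μM to 1 nM final) before a 75 μM CaCl2 bolus. The IC50 used 10-min fluorescence, normalised to DMSO and 5 μM cyclosporin A.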

[2] = Microsomal clearance assay; format: in vitro ADME; details: rat liver microsomes; average value from two experiments
Method: The microsomal stability of test compounds was evaluated using rat liver microsomes (BiolVT) with and without the cofactors nicotinamide adenine dinucleotide phosphate (NADPH) and undine-diphosphate-glucuronic acid (UDPGA). Reactions were performed in a final volume of 250 μl pre-warmed (37° C.) 100 mM phosphate buffer containing 5 mM MgCl2, 0.025 mg/ml alamethicin, and 0.5 mg/ml rat liver microsomes. NADPH and UDPGA were included at 1 mM and 2 mM respectively, where appropriate. Reactions were started with the addition of 1 μM (final concentration) test compound. Verapamil was used as the positive control. Solutions were incubated in a water bath at 37° C. and aliquots collected at 0.5, 5, 15, 30 and 60 min. Reactions were stopped by the addition of 5 volumes of cold acetonitrile with internal standards (200 nM caffeine and 100 nM tolbutamide). Samples were centrifuged at 3220 g for 40 min. An aliquot of supernatant was diluted 1:1 In ultra-pure H2O, then used for LC-MS/MS analysis. Peak areas were determined from extracted ion chromatograms. The slope value, k, was determined by linear regression of the natural logarithm of the remaining percentage of the parent drug vs. incubation time curve. The in vitro half-life (in vitro t½) was determined from the slope value: in vitro t½=0.693/k. Conversion of the in vitro t½ (min) into the in vitro intrinsic clearance (in vitro CLint, in μL/min/mg protein) was done using the following equation (mean of duplicate determinations): […]

[3] = PBS and FaSSIF solubility; format: physicochemical; details: kinetic from dmso stock
In short: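 Solubility was measured from 10 mM DMSO stocks diluted into FaSSIF or PBS pH 7.4, in duplicate, then shaken at 1100 rpm for 2 hr at 25 °C. Filtrates were quantified by LC-MS/MS against an internal standard and a known-concentration standard.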

[4] = Hepatocyte clearance assay, human; format: in vitro ADME; details: cryopreserved primary human hepatocytes, average value from two experiments, read-out: Human heps Clint
Method: In vitro clearance studies were performed in primary rat and human hepatocytes (BiolVT). Vials of cryopreserved rat or human hepatocytes were thawed in a 37° C. water bath for 2 min. Cells were transferred into thawing medium (Williams' Medium E containing 30% Percoll, 1×GlutaMAX-1, 15 mM HEPES, 5% fetal bovine serum (FBS), 4 μg/ml insulin, 1 μM dexamethasone), centrifuged at 100 g for 10 min then resuspended in culture medium (Leibovitz's L-15 Medium) at a concentration of 0.5×10^6 viable cells/mL (number of viable cells assessed using AO/PI staining). Hepatocytes (198 μL) were transferred into wells of a 96-well non-coated plate and placed in a 37° C. incubator for 10 min. Test compound solutions were prepared from 10 mM stocks in DMSO, diluted to 100 μM in 50% (v/v in water) acetonitrile. Test compound samples (2 μl) were added to each well of hepatocytes and incubated at 37° C. Samples (25 μl) were collected at t=0, 15, 30, […] and 120 min, mixed with 6 volumes (150 μl) of acetonitrile containing internal standard (100 nM alprazolam, 200 nM caffeine and 100 nM tolbutamide), vortexed for 5 min and centrifuged for 45 min at 3220 g. An aliquot of supernatant (100 μL) was diluted with 100 μL ultra-pure water, and the mixture was used for LC/MS/MS analysis. All incubations were performed in duplicate. Peak areas were determined from extracted ion chromatograms. The slope value, k, was determined by linear regression of the natural logarithm of the remaining percentage of the parent drug vs. incubation time curve. The in vitro half-life (in vitro t½) was determined from the slope value: in vitro t½=0.693/k. Conversion of the in vitro t½ (in min) into the in vitro intrinsic clearance (in vitro CLint, in μL/min/1×10^6 cells) was done using the following equation (mean of duplicate determinations):
[formula] • V=incubation volume (0.2 mL) • N=number of hepatocytes per well (0.1×10^6 cells).

[5] = Hepatocyte clearance assay, rat; format: in vitro ADME; details: cryopreserved primary rat hepatocytes, average value from two experiments, read-out: Rat heps Clint
In short: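 Cryopreserved rat or human hepatocytes, 0.5×10^6 viable cells/mL in L-15 medium, incubated with compound at 37 °C; samples to 120 min, duplicate. Parent loss by LC/MS/MS; t½ = 0.693/k from ln-linear regression, converted to CLint in μL/min/1×10^6 cells.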

mPTP [6] = test: mPTP activity assay in isolated rat brain mitochondria; format: biochemical; details: isolated rat brain mitochondria
Method: mPTP activity was measured in brain mitochondria freshly isolated from female Sprague Dawley (250 to 300 gram) rats. Anaesthetised rats were perfused in-situ with ˜40 ml cold Dulbecco's Phosphate Buffered Saline (DPBS), then brains dissected and transferred into 30 ml Isolation Buffer (225 mM mannitol, 75 mM sucrose, 1 mM EGTA, adjusted to pH 7.4 with 1 M NaOH). The brain was minced using tweezers and a scalpel into ˜5 mm pieces then transferred into a 50 ml Potterton Dounce homogenization tube on ice containing 10 ml ice-cold isolation buffer (as above with addition of Complete Protease inhibitor; 1 tablet per 50 ml buffer).
Homogenisation was carried out using a […] pestle at 1800 rpm. The slurry was centrifuged at 2000 g for 10 min at 4° C., then the supernatant centrifuged at 12,000 g for 9 min. The pellet was resuspended with a dounce homogeniser in isolation buffer as above but with the addition of 0.02% digitonin, centrifuged at 12,000 g for 11 min and finally resuspended in 5 ml modified isolation buffer (as above but with EGTA reduced to 0.1 mM).
Test compounds were prepared in 384 well polypropylene assay plates as described above for the liver mitochondria assay. A stock mitochondria/Fluo5N assay solution was prepared in 5.6 ml assay buffer (120 mM mannitol, 40 mM MOPS, 5 mM KH2PO4, 60 mM KCl, 10 mM pyruvate, 2 mM malate, 2 mM MgCl2, 20 μM ADP, 1.26 μM oligomycin A, adjusted to pH 7.4) supplemented with Fluo5N pentapotassium salt (2 μM) and 1 ml mitochondria suspension, then transferred (15 μl) into the assay plate containing test compounds and incubated for 10 min at RT. Assay plates were then transferred to a FLIPR Tetra plate reader (Molecular Devices). Dye fluorescence was then measured every 3 sec for a total of 10 min. After 12 sec, a 2.5 μl bolus of Ca2+ (75 μM) was added from a source plate containing 675 μM CaCl2) in FLIPR assay buffer. IC50 values for test compounds were calculated using the fluorescence value collected at the 10 min timepoint with % inhibition calculated using the DMSO control and cyclosporin A values at […].

[7] = aqueous buffer, PBS pH 7.4, 2 hr at 25° C., read-out: Solubility PBS (pH 7.4)
[8] = fasted state simulated intestinal fluid (FaSSIF), fassif, Fasted state simulated intestinal fluid, 2 hr at 25° C., read-out: Solubility FaSSIF

Sequence of CYP2D6 (P10635 whole entry): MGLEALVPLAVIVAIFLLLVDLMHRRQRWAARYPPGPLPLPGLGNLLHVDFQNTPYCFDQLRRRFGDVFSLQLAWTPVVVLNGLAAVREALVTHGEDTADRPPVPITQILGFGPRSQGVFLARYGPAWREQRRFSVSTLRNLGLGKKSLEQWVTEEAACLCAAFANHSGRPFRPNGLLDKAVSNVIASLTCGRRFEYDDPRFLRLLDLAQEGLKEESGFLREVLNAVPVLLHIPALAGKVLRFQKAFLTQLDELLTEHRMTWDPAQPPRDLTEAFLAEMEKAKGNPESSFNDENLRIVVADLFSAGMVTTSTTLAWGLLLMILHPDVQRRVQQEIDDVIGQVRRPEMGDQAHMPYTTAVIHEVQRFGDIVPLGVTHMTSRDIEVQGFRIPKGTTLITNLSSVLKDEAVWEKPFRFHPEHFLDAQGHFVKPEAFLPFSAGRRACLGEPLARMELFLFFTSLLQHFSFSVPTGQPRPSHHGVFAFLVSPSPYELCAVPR

Row | Compound | inhibition at 20 min, 1 µM (CYP2D6) | mPTP Rat liver pIC50 (mPTP [1]) | microsomal CLint at 1 µM [2] | solubility at 2 h [3, 7] | hepatocyte CLint at 1 µM [4] | hepatocyte CLint at 1 µM [5] | solubility at 2 h [3, 8] | mPTP Rat brain pIC50 (mPTP [6])
1 | COc1cc(C)c(NC(=O)/C=C/c2cc3[nH]nc(Cl)c3cc2F)c(C)n1 [Example 96, (2E)-3-(3-chloro-5-fluoro-1H-indazol-6-yl)-N-(6-methoxy-2,4-dimethylpyridin-3-yl)prop-2-enamide] |  | 7.6 |  |  | 6 µL/min/1e6 cells | 13 µL/min/1e6 cells | 14 µM (≈ 5.25 µg/mL) | 7.8
2 | CC1Cc2ccccc2C1NC(=O)/C=C/c1ccc2c(c1)NC(=O)C2 (stereo not drawn) [Example 21, (E)-N-(2-methyl-2,3-dihydro-1H-inden-1-yl)-3-(2-oxoindolin-6-yl)acrylamide] | 0.91% | 6.1 | 38 µL/min/mg | 26 µM (≈ 8.64 µg/mL) |  |  |  | 
3 | Cc1n[nH]c2cc(/C=C/C(=O)N[C@H]3c4ccccc4C[C@@H]3OCCF)ccc12 [Example 68, (E)-N-((1S,2S)-2-(2-fluoroethoxy)-2,3-dihydro-1H-inden-1-yl)-3-(3-methyl-1H-indazol-6-yl)acrylamide] |  | 7.8 |  |  | 12 µL/min/1e6 cells | 34.9 µL/min/1e6 cells | 61.7 µM (≈ 23.4 µg/mL) | 7.7
4 | CCO[C@H]1Cc2ccccc2[C@@H]1NC(=O)/C=C/c1ccc2c(C)n[nH]c2c1 [Example 69, (E)-N-((1S,2S)-2-ethoxy-2,3-dihydro-1H-inden-1-yl)-3-(3-methyl-1H-indazol-6-yl)acrylamide] |  | 7.7 |  |  | 17.9 µL/min/1e6 cells | 73 µL/min/1e6 cells | 181 µM (≈ 65.3 µg/mL) | 7.6
5 | Cc1c(F)cncc1NC(=O)/C=C/c1ccc2c(C)n[nH]c2c1 [Example 110, (2E)-N-(5-fluoro-4-methylpyridin-3-yl)-3-(3-methyl-1H-indazol-6-yl)prop-2-enamide] |  | 7.1 |  |  | 45 µL/min/1e6 cells | 307 µL/min/1e6 cells |  | 6.7
6 | COc1cc(C)c(NC(=O)/C=C/c2cc3[nH]nc(C)c3cc2F)c(C)n1 [Example 95, (2E)-3-(5-fluoro-3-methyl-1H-indazol-6-yl)-N-(6-methoxy-2,4-dimethylpyridin-3-yl)prop-2-enamide] |  | 7.6 |  |  | 3 µL/min/1e6 cells | 5 µL/min/1e6 cells | 76 µM (≈ 26.9 µg/mL) | 7.9

Second part, the compound after the results:

Row | inhibition at 20 min, 1 µM (CYP2D6) | mPTP Rat liver pIC50 (mPTP [1]) | microsomal CLint at 1 µM [2] | solubility at 2 h [3, 7] | hepatocyte CLint at 1 µM [4] | hepatocyte CLint at 1 µM [5] | solubility at 2 h [3, 8] | mPTP Rat brain pIC50 (mPTP [6]) | Compound
7 | -2.11% | 7.3 | 106 µL/min/mg | 22.2 µM (≈ 6.58 µg/mL) |  |  |  |  | Cc1c(F)cccc1NC(=O)/C=C/c1ccc2nn[nH]c2c1 [Example 1, (E)-3-(1H-benzo[d][1,2,3]triazol-6-yl)-N-(3-fluoro-2-methylphenyl)acrylamide]
8 |  | 6.9 |  |  | 9 µL/min/1e6 cells | 7 µL/min/1e6 cells |  | 7.0 | COc1cc(C)c(NC(=O)/C=C/c2cc3[nH]nc(C#N)c3cc2F)c(C)n1 [Example 98, (2E)-3-(3-cyano-5-fluoro-1H-indazol-6-yl)-N-(6-methoxy-2,4-dimethylpyridin-3-yl)prop-2-enamide]
9 |  | 7.7 |  |  | 3 µL/min/1e6 cells | 3 µL/min/1e6 cells | 8 µM (≈ 2.59 µg/mL) | 7.4 | Cc1ncc(F)c(C)c1NC(=O)/C=C/c1ccc2c(C)n[nH]c2c1 [Example 113, (2E)-N-(5-fluoro-2,4-dimethylpyridin-3-yl)-3-(3-methyl-1H-indazol-6-yl)prop-2-enamide]
10 | 1.2% | 6.0 | 23 µL/min/mg | 1.11 µM (≈ 0.364 µg/mL) |  |  |  |  | Cc1c(F)cccc1NC(=O)/C=C/c1cc(F)c2c(c1)NC(=O)C2 [Example 18, (E)-N-(3-fluoro-2-methylphenyl)-3-(4-fluoro-2-oxoindolin-6-yl)acrylamide]
